Source: the supplement of paper PMC8837787

test system: Saccharomyces cerevisiae ABC16-Green Monster; details: 18 h; 30 °C; YPD
Outline: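 Growth of the drug-sensitive yeast strain S. cerevisiae ABC16-Green Monster was followed by OD600 at 0 h and 18 h after log-phase YPD cultures (200 µl per well, 96-well plates) were exposed at 30 °C to compound at final concentrations of 0.1–150 μM in eight 1:2 steps, in biological duplicate. Untreated cultures were run in parallel. Background-subtracted readings were fitted in GraphPad Prism with a variable-slope log(inhibitor) versus response model to give IC50.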

| Compound | IC50 growth inhibition |
| --- | --- |
| COc1cccc2c1C(=O)c1c(O)c3c(c(O)c1C2=O)CC(O)(C(=O)CO)CC3OC1CC(N)C(O)C(C)O1 (centres undefined) [Doxorubicin] | 11.2 µM |
| CNCCC(Oc1ccc(C(F)(F)F)cc1)c1ccccc1 (centres undefined) [Fluoxetin] | 59.5 µM |
| C=CC1(C)CC(=O)C2(O)C(C)(O1)C(OC(C)=O)C(O)C1C(C)(C)CCC(O)C12C (centres undefined) [Forskolin] | > 75 µM |
| COc1cc(C2c3cc4c(cc3C(OC3OC5COC(C)OC5C(O)C3O)C3COC(=O)C23)OCO4)cc(OC)c1O (centres undefined) [Etoposide] | 23.6 µM |
| Cn1ccnc1CNCCS(=O)(=O)c1cccc(Nc2ccc(-c3cccc(F)c3)cn2)c1 | 50.5 µM |
| O=C(Nc1c(O)cccc1-c1nc2c(C(=O)O)cccc2o1)c1cc(-c2ccccc2)on1 | 38.7 µM |
| O=C([C@@H](c1ccc(Cl)cc1)c1cccnc1)N1CCN(c2ccc(C(F)(F)F)cc2)CC1 | 50 µM |
| CSc1ccccc1C(=O)Nc1nc(-c2ccccn2)cs1 | 10.8 µM |
| CN(C)CCCN1c2ccccc2CCc2ccc(Cl)cc21.Cl [Clomipramine] | 18.3 µM |
